Assay results reported in patent US9074014B2 (Ipsen Pharma S.A.S., priority 2008, dated 2015).
Where a SMILES comes first, the peptide text is derived from it. Where no end group is shown, it is not given here. [ ]: non-standard residue; d: D form. Ac6c = NC1(C(=O)O)CCCCC1; Nle = CCCC[C@H](N)C(=O)O; Ac5c = NC1(C(=O)O)CCCC1; Aib = CC(C)(N)C(=O)O

Key:
[1] = biological target: T1, human recombinant GIP receptor (Homo sapiens, UniProt P48546); assay: In vitro hGIP receptor binding assay ([125I]GIP displacement, CHO-K1 membranes)
T1 construct: expressed in transfected cells; host or cells: CHO-K1 clonal cells (membranes)
T1 sequence (P48546 22-466): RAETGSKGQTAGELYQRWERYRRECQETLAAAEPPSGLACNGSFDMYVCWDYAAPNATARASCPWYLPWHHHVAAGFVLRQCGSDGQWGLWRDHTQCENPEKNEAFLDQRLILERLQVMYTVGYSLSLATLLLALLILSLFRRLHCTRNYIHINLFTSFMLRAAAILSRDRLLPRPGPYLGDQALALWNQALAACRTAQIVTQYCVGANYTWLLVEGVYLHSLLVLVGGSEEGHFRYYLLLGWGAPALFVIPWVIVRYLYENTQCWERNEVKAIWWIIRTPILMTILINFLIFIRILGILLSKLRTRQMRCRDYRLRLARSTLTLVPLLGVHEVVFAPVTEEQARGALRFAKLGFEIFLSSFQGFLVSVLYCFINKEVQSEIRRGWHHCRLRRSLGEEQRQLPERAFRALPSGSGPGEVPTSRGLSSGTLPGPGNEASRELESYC
Excerpt: A. In Vitro hGIP Receptor Binding Assay

[2] = Human plasma half-life assay; format: in vitro ADME; conditions: human plasma, 37° C., LC-MS; read-out: Human Plasma T½ (converted)
[3] = Rat plasma half-life assay; format: in vitro ADME; conditions: rat plasma, 37° C., LC-MS; read-out: Rat Plasma T½ (converted)

Row | Molecule | Ki [1] [nM] | half-life at 0.1 mg/ml [2] [min] | half-life at 0.1 mg/ml [3] [min]
1 | CCCC[C@H](NC(=O)[C@H](C)NC(=O)[C@@H](NC(=O)C1(NC(=O)[C@H](Cc2ccc(O)cc2)NC(=O)[C@H](CC(=O)O)NC(=O)[C@H](CO)NC(=O)[C@@H](NC(=O)[C@H](Cc2ccccc2)NC(=O)[C@@H](NC(=O)CNC(=O)[C@@H]2CCCN2C(=O)[C@H](C)NC(=O)[C@@H](N)Cc2ccc(O)cc2)[C@@H](C)O)[C@@H](C)CC)CCCC1)[C@@H](C)CC)C(=O)N[C@@H](CC(=O)O)C(=O)N[C@@H](CCCCN)C(=O)N[C@H](C(=O)N[C@@H](Cc1c[nH]cn1)C(=O)N[C@@H](CCC(N)=O)C(=O)N[C@@H](CCC(N)=O)C(=O)N[C@@H](CC(=O)O)C(=O)N[C@@H](Cc1ccccc1)C(=O)N[C@H](C(=O)N[C@@H](CC(N)=O)C(=O)N[C@@H](Cc1c[nH]c2ccccc12)C(=O)N[C@@H](CC(C)C)C(=O)N[C@@H](CC(C)C)C(=O)N[C@@H](C)C(=O)N[C@@H](CCC(N)=O)C(=O)N[C@@H](CCCCN)C(=O)O)C(C)C)[C@@H](C)CC [Example 92, (Pro^3, A5c^11, Nle^14)hGIP(1-30)-OH] (H-YAPGTFISDY[Ac5c]IA[Nle]DKIHQQDFVNWLLAQK-OH; N-terminus and C-terminus assumed) | 86.8 | 720 | 96
2 | CC[C@H](C)[C@H](NC(=O)[C@H](CO)NC(=O)[C@H](Cc1ccc(O)cc1)NC(=O)[C@H](CC(=O)O)NC(=O)C(C)(C)NC(=O)[C@@H](NC(=O)[C@H](Cc1ccccc1)NC(=O)[C@@H](NC(=O)CNC(=O)[C@H](CCC(=O)O)NC(=O)C(C)(C)NC(=O)[C@@H](N)Cc1ccc(O)cc1)[C@@H](C)O)[C@@H](C)CC)C(=O)N[C@@H](C)C(=O)N[C@@H](CCSC)C(=O)N[C@@H](CC(=O)O)C(=O)N[C@@H](CCCCN)C(=O)N[C@H](C(=O)N[C@@H](Cc1c[nH]cn1)C(=O)N[C@@H](CCC(N)=O)C(=O)N[C@@H](CCC(N)=O)C(=O)N[C@@H](CC(=O)O)C(=O)N[C@@H](Cc1ccccc1)C(=O)N[C@H](C(=O)N[C@@H](CC(N)=O)C(=O)N[C@@H](Cc1c[nH]c2ccccc12)C(=O)N[C@@H](CC(C)C)C(=O)N[C@@H](CC(C)C)C(=O)N[C@@H](C)C(=O)N[C@@H](CCC(N)=O)C(=O)N[C@@H](CCCCN)C(N)=O)C(C)C)[C@@H](C)CC [Example 17, (Aib^2, 8)hGIP(1-30)-NH2] (H-Y[Aib]EGTFI[Aib]DYSIAMDKIHQQDFVNWLLAQK-NH2; N-terminus assumed) | 15.9 | 1040 | 3300
3 | CCCC[C@H](NC(=O)C(C)(C)NC(=O)[C@@H](NC(=O)[C@H](CO)NC(=O)[C@H](Cc1ccc(O)cc1)NC(=O)[C@H](CC(=O)O)NC(=O)[C@H](CO)NC(=O)[C@@H](NC(=O)[C@H](Cc1ccccc1)NC(=O)[C@@H](NC(=O)CNC(=O)[C@@H]1CCCN1C(=O)C(C)(C)NC(=O)[C@@H](N)Cc1ccc(O)cc1)[C@@H](C)O)[C@@H](C)CC)[C@@H](C)CC)C(=O)N[C@@H](CC(=O)O)C(=O)N[C@@H](CCCCN)C(=O)N[C@H](C(=O)N[C@@H](Cc1c[nH]cn1)C(=O)N[C@@H](CCC(N)=O)C(=O)N[C@@H](CCC(N)=O)C(=O)N[C@@H](CC(=O)O)C(=O)N[C@@H](Cc1ccccc1)C(=O)N[C@H](C(=O)N[C@@H](CC(N)=O)C(=O)N[C@@H](Cc1c[nH]c2ccccc12)C(=O)N[C@@H](CC(C)C)C(=O)N[C@@H](CC(C)C)C(=O)N[C@@H](C)C(=O)N[C@@H](CCC(N)=O)C(=O)N[C@@H](CCCCN)C(N)=O)C(C)C)[C@@H](C)CC [Example 108, (Aib^2, 13, Pro^3, Nle^14)hGIP(1-30)-NH2] (H-Y[Aib]PGTFISDYSI[Aib][Nle]DKIHQQDFVNWLLAQK-NH2; N-terminus assumed) | 0.07 | 2770 | 2740
4 | Y[Aib]EGTFISDY[Aib]IA[Ac6c]DKIHQQDFVNWLLAQKGKKNDWKHNITQ-OH [Example 41, (Aib^2, 11, A6c^14)hGIP(1-42)-OH] | 0.73 | 954 | 798
5 | CC[C@H](C)[C@H](NC(=O)[C@H](CCCCN)NC(=O)[C@H](CC(=O)O)NC(=O)[C@H](CCSC)NC(=O)C(C)(C)NC(=O)[C@@H](NC(=O)[C@H](CO)NC(=O)[C@H](Cc1ccc(O)cc1)NC(=O)[C@H](CC(=O)O)NC(=O)[C@H](CO)NC(=O)[C@@H](NC(=O)[C@H](Cc1ccccc1)NC(=O)[C@@H](NC(=O)CNC(=O)[C@H](CCC(=O)O)NC(=O)C(C)(C)NC(=O)[C@@H](N)Cc1ccc(O)cc1)[C@@H](C)O)[C@@H](C)CC)[C@@H](C)CC)C(=O)N[C@@H](Cc1c[nH]cn1)C(=O)N[C@@H](CCC(N)=O)C(=O)N[C@@H](CCC(N)=O)C(=O)N[C@@H](CC(=O)O)C(=O)N[C@@H](Cc1ccccc1)C(=O)N[C@H](C(=O)N[C@@H](CC(N)=O)C(=O)N[C@@H](Cc1c[nH]c2ccccc12)C(=O)N[C@@H](CC(C)C)C(=O)N[C@@H](CC(C)C)C(=O)N[C@@H](C)C(=O)N[C@@H](CCC(N)=O)C(=O)N[C@@H](CCCCN)C(=O)NCC(=O)N[C@@H](CCCCN)C(=O)N[C@@H](CCCCN)C(=O)N[C@@H](CC(N)=O)C(=O)N[C@@H](CC(=O)O)C(=O)N[C@@H](Cc1c[nH]c2ccccc12)C(=O)N[C@@H](CCCCN)C(=O)N[C@@H](Cc1c[nH]cn1)C(=O)N[C@@H](CC(N)=O)C(=O)N[C@H](C(=O)N[C@H](C(=O)N[C@@H](CCC(N)=O)C(=O)O)[C@@H](C)O)[C@@H](C)CC)C(C)C [Example 60, (Aib^2, 13)hGIP(1-42)-OH] | 0.05 | 1560 | 630
6 | Y[Aib]EGTF[Ac6c]SDYSIAMDKIHQQDFVNWLLAQKGKKNDWKHNITQ-OH [Example 43, (Aib^2, A6c^7)hGIP(1-42)-OH] | 0.3 | 528 | 462
7 | CCCC[C@H](NC(=O)[C@H](C)NC(=O)[C@@H](NC(=O)[C@H](CO)NC(=O)[C@H](Cc1ccc(O)cc1)NC(=O)[C@H](CC(=O)O)NC(=O)[C@H](CO)NC(=O)[C@@H](NC(=O)[C@H](Cc1ccccc1)NC(=O)[C@@H](NC(=O)CNC(=O)[C@H](CCC(=O)O)NC(=O)C1(NC(=O)[C@@H](N)Cc2ccc(O)cc2)CCCC1)[C@@H](C)O)[C@@H](C)CC)[C@@H](C)CC)C(=O)N[C@@H](CC(=O)O)C(=O)N[C@@H](CCCCN)C(=O)N[C@H](C(=O)N[C@@H](Cc1c[nH]cn1)C(=O)N[C@@H](CCC(N)=O)C(=O)N[C@@H](CCC(N)=O)C(=O)N[C@@H](CC(=O)O)C(=O)N[C@@H](Cc1ccccc1)C(=O)N[C@H](C(=O)N[C@@H](CC(N)=O)C(=O)N[C@@H](Cc1c[nH]c2ccccc12)C(=O)N[C@@H](CC(C)C)C(=O)N[C@@H](CC(C)C)C(=O)N[C@@H](C)C(=O)N[C@@H](CCC(N)=O)C(=O)N[C@@H](CCCCN)C(=O)NCC(=O)N[C@@H](CCCCN)C(=O)N[C@@H](CCCCN)C(=O)N[C@@H](CC(N)=O)C(=O)N[C@@H](CC(=O)O)C(=O)N[C@@H](Cc1c[nH]c2ccccc12)C(=O)N[C@@H](CCCCN)C(=O)N[C@@H](Cc1c[nH]cn1)C(=O)N[C@@H](CC(N)=O)C(=O)N[C@H](C(=O)N[C@H](C(=O)N[C@@H](CCC(N)=O)C(=O)O)[C@@H](C)O)[C@@H](C)CC)C(C)C)[C@@H](C)CC [Example 40, (A5c^2, Nle^14)hGIP(1-42)-OH] | 15.9 | 462 | 294
8 | CCCC[C@H](NC(=O)C(C)(C)NC(=O)[C@@H](NC(=O)[C@H](CO)NC(=O)[C@H](Cc1ccc(O)cc1)NC(=O)[C@H](CC(=O)O)NC(=O)[C@H](CO)NC(=O)[C@@H](NC(=O)[C@H](Cc1ccccc1)NC(=O)[C@@H](NC(=O)CNC(=O)[C@H](CCC(=O)O)NC(=O)C(C)(C)NC(=O)[C@@H](N)Cc1ccc(O)cc1)[C@@H](C)O)[C@@H](C)CC)[C@@H](C)CC)C(=O)N[C@@H](CC(=O)O)C(=O)N[C@@H](CCCCN)C(=O)N[C@H](C(=O)N[C@@H](Cc1c[nH]cn1)C(=O)N[C@@H](CCC(N)=O)C(=O)N[C@@H](CCC(N)=O)C(=O)N[C@@H](CC(=O)O)C(=O)N[C@@H](Cc1ccccc1)C(=O)N[C@H](C(=O)N[C@@H](CC(N)=O)C(=O)N[C@@H](Cc1c[nH]c2ccccc12)C(=O)N[C@@H](CC(C)C)C(=O)N[C@@H](CC(C)C)C(=O)N[C@@H](C)C(=O)N[C@@H](CCC(N)=O)C(=O)N[C@@H](CCCCN)C(=O)NCC(=O)N[C@@H](CCCCN)C(=O)N[C@@H](CCCCN)C(=O)N[C@@H](CC(N)=O)C(=O)N[C@@H](CC(=O)O)C(=O)N[C@@H](Cc1c[nH]c2ccccc12)C(=O)N[C@@H](CCCCN)C(=O)N[C@@H](Cc1c[nH]cn1)C(=O)N[C@@H](CC(N)=O)C(=O)N[C@H](C(=O)N[C@H](C(=O)N[C@@H](CCC(N)=O)C(=O)O)[C@@H](C)O)[C@@H](C)CC)C(C)C)[C@@H](C)CC [Example 57, (Aib^2, 13, Nle^14)hGIP(1-42)-OH] | 0.05 | 1830 | 828
9 | Y[Aib]EGTFISDYSIA[Ac6c]DKIHQQDFVNWLLAQKGKKNDWKHNITQ-OH [Example 42, (Aib^2, A6c^14)hGIP(1-42)-OH] | 0.07 | 636 | 372
